Reference: article PMC12048343, “Discovery of a small molecule secreted clusterin enhancer that improves memory in Alzheimer’s disease mice” (npj Drug Discovery, 2025)

Columns and labels:
[1] = test system: human iPSC-derived neurons; assay: Neurite outgrowth assay in iPSC-derived human neurons; type: cell-based; conditions: 48 h
Protocol: The iPSC derived human neurons were provided by the Kornblum lab to be cultured in normal growth conditions (37 °C, 5% CO2) for 2–3 days. Cells were cultured in CELLSTAR uClear 384 well plates, PS, F bottom at seeding density of 5000 cells per well coated overnight with 30 ug/mL poly-D-lysine and 2 ug/mL laminin. Media was replaced every 3 days with Lonza Primary Neuron Basal Medium (PNBM) supplemented with 2 mM L-glutamine, GA-1000, and 2% NSF-1. On day 3, cells were treated with DDL357 in doses ranging from 15,000 nM to 0.76 nM for 48 h. All compounds were diluted in 0.5% DMSO and pinned to 384 well plates with 25 µL of cell media per well with pin size of 250 nL using BioMek FX (Beckman Coulter, CA). After 48 h, media was replaced twice to ensure removal of any remaining compound residues before imaging for neurite outgrowth with Calcein-AM and Hoescht. Imaging was done at UCLA Molecular Screening Shared Resource core facility (MSSR; Robert Damoiseaux, Ph.D., Director) with ImageXPress Confocal (Molecular Devices, CA) using a 10x objective. Total neurite outgrowth was measured via a MetaXpress (Molecular Devices, CA) neurite outgrowth analysis algorithm. […] Mean neurite outgrowth per drug exposure was determined by normalizing to vehicle control (n = 60). […]

[2] = test system: 3xTg-AD murine model of AD; assay: Chronic 6-week oral study in 3xTg-AD mice (hippocampus biomarkers, proteomics); type: in vivo, mouse; conditions: oral 15 mg/kg BID, 6 weeks, vs vehicle
Protocol: Brain tissue was homogenized and diluted to a protein concentration of 50 ng/mL. The Mouse Clusterin ELISA Kit (Cat#ab199079, Abcam) was performed according to the manufacturer’s protocol.
Hippocampal tissue was sonicated in TPER buffer containing 1x protease and phosphatase inhibitors (Fisher catalog # 78429) on ice. Samples were centrifuged at 16000xg for 10 min at 4 degrees C. A BCA protein quantification assay was performed on each sample in duplicate. Aliquots of 40 uL were stored in the -80 freezer.
A sample of brain homogenate (8.8 mg/mL) was tested at 10 dilutions using the Tau AlphaLISA (Revvity Cat#AL271C) (32, 64, 128, 256, 512, 1024, 2048, 4096, 8192, 16384-fold) and, separately, the anti-tau phosphor AT8 and S396 (Fisher catalogs MN1020B and 44-752 G, respectively) antibodies (2, 4, 8, 16, 32, 64, 128, 256, 512, 1024-fold). AlphaLISA assays were by loading 2 µL of the anti-tau acceptor bead mixed with anti-tau or anti-ptau biotinylate antibodies in the 384-well plate, then 2 uL sample was loaded and incubated for 1 h at room temperature. AlphaScreen Streptavidin Donor beads (2 µL, Cat#6760002S, Perkin Elmer) were added, incubated for an additional 30 minutes in the dark, and the plate was read in an Envision plate reader.
Additional assays: The Aβ1-42 ELISA assay was performed on hippocampus brain homogenate according to the manufacturer’s protocol (Fisher KHB3441). Humanin in cell culture lysate was quantify by ELISA assay, according to the manufacturer’s protocol (MyBioSourc Cat# MBS7607247). SirT1 in cell culture lysate was quantify using AlphaLISA. Cell lysate (2 μL) was added to a 384-well proxy plate preloaded with 2 µL anti-SiRT1 antibody mixture (ABCAM catalog AB110304, biotinylated (10 nM) and ABCAM catalog AB104833, acceptor bead conjugated (50 µg/mL, Cat#6772001, Perkin Elmer)) was added and incubated at room temperature for 1 hour. AlphaScreen Streptavidin Donor beads (2 µL, Cat#6760002S, Perkin Elmer) were added, incubated for an additional 30 min in the dark, and the plate was read in an Envision plate reader.
All procedures were performed in accordance with protocols approved by the UCLA Institutional Animal Care and Use Committee (IACUC) and guidelines of the NIH. Mouse strains used were C57BL/6 J (Black 6, Jackson Laboratory; JAX stock #000564). All non-AD mice were 4 to 5 mo old at the time of the experiments. […]

sCLU in SH-SY5Y cells = assay: sCLU levels in SH-SY5Y cells; type: cell-based, human; conditions: SH-SY5Y cells (Fig. S9A)
Protocol: Cell culture supernatant (2 μL) was added to a 384-well proxy plate preloaded with AlphaLISA HiBlock buffer (2 µL, 1X, CAT#AL004C, Perkin Elmer). Then an anti-sCLU antibody mixture (2 µL, mAb J84, biotinylated (10 nM, Cat# 3717-6-1000, Mabtech) and mAb CLU aa 22-227 (Cat#AF7084, R&D Systems), Acceptor bead conjugated (50 µg/mL, Cat#6772001, Perkin Elmer)) was added and incubated at room temperature for 1 hour. AlphaScreen Streptavidin Donor beads (2 µL, Cat#6760002S, Perkin Elmer) were added, incubated for an additional 30 min in the dark, and the plate was read in an Envision plate reader.

HEPG2 cells = assay: Cytotoxicity, MultiTox-Fluor (hepatotoxicity); type: cell-based; conditions: HEPG2, up to 50 µM
From the text: Cell viability and toxicity were simultaneously assessed using the MultiTox-Fluor Multiplex Cytotoxicity Assay (Cat# PRG9200, Fisher Scientific) according to the manufacturer’s protocol.

Cc1sc2c(c1C)C(c1ccc(Cl)cc1)=N[C@@H](CC(=O)OC1CC1)c1nnc(C)n1-2 [DDL-357]
concentrations associated with significantly increased neurite outgrowth [1]: 0.8 to 61.7 nM
reduction of tau phosphorylation at Ser396 (p-tau/total tau) ([2]; hippocampus): significant
tau phosphorylation at Ser202/Thr205 (p-tau/total tau) ([2]; hippocampus): lower, but not significantly so
Aβ1-42 levels in brain [2]: the differences were not significant
sCLU levels in brain [2]: the differences were not significant
sCLU levels (sCLU in SH-SY5Y cells): increasing sCLU
Ctox (HEPG2 cells): ≥ 50 µM
